Data on three compounds can be found in patent publication US11123353B2 (Zhejiang Chinese Medical University, priority 2019, dated 2021).

The subject of data set [1] is PC-9/GR tumor-bearing nude mouse model. The data set can be described thus: In vivo fluorescence imaging targeting test (DiR). On the set-up: species or system nude mice. Conditions: DiR 7.5 μg·mL^−1, 0.2 mL tail vein, within 24 h. Here is the method: The nude mice with a body mass of approximately 25 g in the established PC-9/GR tumor-bearing nude mouse model were taken, and respectively injected with 0.2 mL of a DiR raw medicine, and DiR-coated RGD/R8-ERG/GEF-LIP and RGD/R8-ERG/GEF-LIP freeze-dried powder (DiR concentration: 7.5 μg·mL^−1) by tail vein injection, the nude mice were anesthetized with isoflurane at different time points, and placed in an in vivo imager to observe the distribution of liposome in vivo (Ex=748 nm, Em=780 nm, and exposure time: 2 s). After 24 h, after the last in vivo imaging was finished, the nude mice were killed, and the heart, liver, spleen, lung, kidney and tumor were taken out and placed in the in vivo imager to observe the distribution of liposome in the in vitro tissues. […] It is speculated that the particle size of freeze-dried powder is smaller than that of RGD/R8-ERG/GEF-LIP, which increases the probability of entering the tumor cells to a certain extent and increases the tumor targeting effect in vivo.

Another data set relates to A549 cells. The data set can be described thus: Cell cycle by PI flow cytometry, A549 cells. To be noted: A549, 48 h. The format is cell-based, human. Here is the method: (§1) The number of cells in logarithmic growth phase was adjusted to 1.5×10^5·mL^−1, the cells were inoculated into a 6-well culture plate, and cultured in a 37° C. 5% CO2 incubator until 80% of the cells were fused and then a drug was added for treatment. […] After the drug acted for 48 h, a supernatant and cells were collected, centrifuged at 800 rpm·min^−1 for 10 min, washed once with PBS and fixed overnight with 75% ice ethanol, ethanol was discarded by centrifuging, and the cells were washed twice with PBS. The PBS was discarded, each sample was added with 0.5 ml of a PI staining solution to stain for 15 min at room temperature in the dark, and placed on a flow cytometer for measuring the proportion of cells in each cycle. The experiment was repeated 3 times.
In general terms: A flow cytometer gives signals particle by particle.

Another data set concerns PC-9 cells. The experiment in a line: Cell cycle by PI flow cytometry, PC-9 cells. The format is cell-based, human. Conditions: PC-9, 48 h. The method, then:
as §1
[…]. Other operations were the same as above.

Data set [2] in a line: In vitro release of GEF by dialysis in different pH release media. The data set is classed as physicochemical. Conditions: for cumulative release percentage of GEF: 37° C., listed as GEF raw medicine. The method, then:
Due to its high lipid solubility, ERG could be dissolved in pure methanol or pure ethanol. However, the membranes of the liposomes directly ruptured in pure methanol or pure ethanol, and a release medium was difficult to meet the “sink” condition of ERG. Therefore, the in vitro release of ERG was not investigated in the experiment. […] Therefore, the in vitro release of GEF drug under different pH conditions was investigated in the experiment. […] Calculation was carried out according to the following formula: Cumulative release percentage Q (%)=(c1×V0+Σn=1^t-1Cv)/M0×100%
In the experiment, the in vitro release of GEF drug under different pH conditions was investigated. […] For specific operation, please refer to “5.7 Release Rate” in Part II in details.

For data set [3], the system named is PC-9/GR lung cancer xenografts. The data set can be described thus: Preliminary pharmacodynamic test in PC-9/GR tumor-bearing nude mice. The format is in vivo, BABL/C nude mouse.
Method: A PC-9/GR lung cancer cell line was digested from a culture flask, and then resuspended in 0.9% normal saline, and the cell concentration was adjusted to 2.5×10^7·mL^−1 and the cell was inoculated into the left axilla of BABL/C nude mouse. Each nude mouse was inoculated with 0.2 mL of a cell suspension.
The nude mice in each group were administered by tail vein injection.
After starting administration, the body mass of the nude mouse was regularly measured once, and the longest and shortest diameters of the tumor were measured with a vernier caliper to calculate the volume of the tumor. After consecutively administrating 7 times, the tumor volume of each group was measured and the tumor inhibitory rate of each administration group was calculated. Tumor volume (mm^3)=½×Long diameter (mm)×Short diameter (mm)^2
Tumor inhibitory rate (%)=(Average tumor weight of model control group (mg)—Average tumor weight of administration group (mg))/Average tumor weight of model control group (mg)×100%

SMILES strings stand for the structures. Where “and” joins values, the source holds several entries; their conditions need not be identical. Equal entries are not always repeated.

On to `CCCCCCCCCCCCCCCCCCN1/C(=C/C=C/C=C/C=C/C2=[N+](CCCCCCCCCCCCCCCCCC)c3ccccc3C2(C)C)C(C)(C)c2ccccc21.[I-]` [DiR raw medicine], for which the “fluorescence accumulation in the tumor site” value in data set [1] was “not accumulated in the tumor site”.

Consider `CC(C)[C@@H](C)/C=C/[C@@H](C)[C@H]1CC[C@H]2C3=CC=C4C[C@@H](O)CC[C@]4(C)[C@H]3CC[C@]12C` [ERG, ergosterol], for which the S phase fraction with A549 cells (ERG 20 μM) is on record as 32.05±2.27%; with PC-9 cells (ERG 40 μM, ERG+GEF 40+5 μM) it was 26.93±2.02%. The compound also came in with a G2/M phase fraction with PC-9 cells (ERG 40 μM) of 13.58±1.80%.

In the case of `COc1cc2ncnc(Nc3ccc(F)c(Cl)c3)c2cc1OCCCN1CCOCC1` [GEF, gefitinib], the “cumulative release percentage of GEF” value in data set [2] (pH 6.4 40% methanol-containing phosphate buffer, 24 h) was 98.91% and 99.12%; in data set [2] (pH 7.4 40% methanol-containing phosphate buffer, within 24 h), 76.91% and 81.10%. Further, the release model fitting result in data set [2] (pH 6.4 release medium (FIG. 12)) is “conforms to the first-order kinetic equation”; in data set [2] (pH 6.4 release medium (FIG. 25; freeze-dried powder first 4 h)), “more in line with the first-order model”; in data set [2] (pH 7.4 release medium (FIG. 12)) it was “closer to the Higuchi equation”; in data set [2] (pH 7.4 release medium (FIG. 25; freeze-dried powder first 4 h)) it was “more in line with the Higuchi model”. Besides, the “fitting correlation coefficient of the first-order kinetic equation” value in data set [2] (pH 7.4 release medium) is reported as 0.9952. Also, the average tumor weight result in data set [3] (compared with the model control group) is “highly significant difference”. Further, in data set [3] (course over 15 days of administration), the tumor volume change result is listed as “rapid growth trend after the 9th day of administration”. The G0/G1 phase fraction in the data set on A549 cells (GEF 20 μM, combination of two drugs) amounted to 72.60±0.81%; in the data set on PC-9 cells (GEF 5 μM, ERG+GEF 40+5 μM), 78.35±1.58%.
